From patent publication US8158638B2, “Pyrazolopyrimidine derivative” (Daiichi Sankyo Company, Limited, priority 2006, dated 2012) come the findings set out here.

Structures can show the parent of a compound that is named as a salt. Where two headings read alike, the source gives them in different places.

The target of assay [1] is T1, recombinant yeast Hsp90 protein (rHsp90) (Saccharomyces cerevisiae, UniProt P02829).
T1 construct: made in house; host or cells: Escherichia coli
Briefly: Hsp90 ATPase assay. The assay is classed as biochemical. As to conditions: rHsp90 100 μg/mL, ATP 100 μM, 37° C., two hours, BIOMOL GREEN; read-out: IC50 value (concentration for 50% inhibition of ATP activity). As to the method:
An Hsp90 ATPase assay was performed using a recombinant yeast Hsp90 protein (hereinafter called rHsp90). Yeast Hsp90 DNA was cloned from a yeast genomic DNA library according to a conventional method. The cloned yeast Hsp90 DNA was incorporated into a plasmid for expression in Escherichia coli, and the plasmid was expressed in Escherichia coli to obtain rHsp90.
The test compound was dissolved in DMSO to 10 mM. The dissolved solution was diluted with DMSO to eight concentrations ranging in three-fold dilutions from 4 mM. Each diluted solution was further 10-fold diluted with an assay buffer (100 mM Tris, pH 7.4, 20 mM KCl, 6 mM MgCl2) (concentration of each test compound solution: 400 μM, 133 μM, 44.4 μM, 14.8 μM, 4.94 μM, 1.65 μM, 0.549 μM, 0.183 μM; DMSO concentration: 10%).
rHsp90 was dissolved in a TE buffer (20 mM Tris, pH 7.4, 1 mM EDTA) to a concentration of 2.531 mg/mL. The dissolved solution was diluted with assay buffer to 125 μg/mL and dispensed to a 96-well assay plate at 40 μL per well (final concentration: 100 μg/mL).
The test compound solution was dispensed at 5 μL per well, and then the solutions in the respective wells were mixed using a plate mixer. 100 mM ATP (Sigma, Catalog No. A-7699) was diluted with assay buffer to 1 mM and dispensed at 5 μL per well (final concentration: 100 μM). The solutions in the respective wells were mixed using a plate mixer, and then the assay plate was allowed to stand in an incubator set at 37° C. for two hours.
BIOMOL GREEN Reagent (BIOMOL, Catalog No. AK-111) was dispensed at 100 μL per well, and the reaction was terminated. The solutions in the respective wells were mixed by pipetting (three times), and then 34% sodium citrate was dispensed at 10 μL per well. The solutions in the respective wells were mixed by pipetting (three times), and then the assay plate was left to stand at room temperature for 10 minutes. The absorbance at 630 nm of each well was measured with a microplate reader.
The ratio of the absorbance of the test compound-added group to the absorbance of the test compound-free group (T/C value) was determined by the following calculation formula, based on the assumption that the absorbance of the well to which the test compound and rHsp90 were added was A, the absorbance of the well to which only rHsp90 was added was B, and the absorbance of the well to which neither the test compound nor rHsp90 was added was C. T/C=(A−C)/(B−C)
Further, the concentration for 50% inhibition of ATP activity (IC50 value) was calculated using GraphPad Prism 4 (GraphPad Software, Inc.).

The subject of assay [2] is human lung cancer cell line NCI-H460. Briefly: Cell growth inhibition assay (MTT), NCI-H460. Particulars: Homo sapiens, read-out: GI50 value (50% growth inhibitory concentration). The assay is classed as cell-based. As to the method:
(§1) A cell growth inhibition assay was performed using two types of cells (human breast cancer cell line SK-BR-3 and human lung cancer cell line NCI-H460).
(§2) Cells of each type were suspended in a medium and seeded into a 96-well multi-well plate at 500 cells/150 μl/well. The test compound was dissolved in DMSO, and this was diluted with medium to prepare a sample solution (DMSO concentration: 0.5% or less). On the day following the seeding, 50 μL of DMSO-containing medium to which the test compound was not added (hereinafter called DMSO diluted solution; DMSO concentration: 0.5% or less) or the sample solution was added to the cells. An MTT assay was performed immediately after and 72 hours after adding the sample solution or the DMSO diluted solution to the cells. The MTT assay was performed as follows.
(§3) 5 mg/mL of an MTT (3-(4,5-dimethylthiazol-2-yl)-2,5-diphenyltetrazolium bromide) solution was added at 20 μL per well. Thereafter, the plate was incubated at 37° C. in 5% CO2 for four hours. The plate was centrifuged at 1200 rpm for five minutes, and then the culture supernatant was removed by suction using a dispenser. DMSO was added at 150 μL per well, and the generated formazan was dissolved. The plate was stirred using a plate mixer to uniformly color the respective wells. The absorbance of each well was measured using a plate reader at an OD of 540 nm with a reference of 660 nm.
(§4) T/C (%) for each concentration was determined by the following calculation formula and a dose-response curve was drawn to calculate the 50% growth inhibitory concentration (GI50 value), based on the assumption that the OD value measured immediately after adding the sample solution was S, the OD value measured 72 hours after adding the sample solution was T, and the OD value measured 72 hours after adding the DMSO diluted solution was C. T/C(%)=(T−S)/(C−S)×100

For assay [3], the system named is human breast cancer cell line SK-BR-3. Briefly: Cell growth inhibition assay (MTT), SK-BR-3. Particulars: Homo sapiens, read-out: GI50 value (50% growth inhibitory concentration). The assay is classed as cell-based. The protocol:
as §1, §2, §3, §4

T1 sequence (P02829 whole entry): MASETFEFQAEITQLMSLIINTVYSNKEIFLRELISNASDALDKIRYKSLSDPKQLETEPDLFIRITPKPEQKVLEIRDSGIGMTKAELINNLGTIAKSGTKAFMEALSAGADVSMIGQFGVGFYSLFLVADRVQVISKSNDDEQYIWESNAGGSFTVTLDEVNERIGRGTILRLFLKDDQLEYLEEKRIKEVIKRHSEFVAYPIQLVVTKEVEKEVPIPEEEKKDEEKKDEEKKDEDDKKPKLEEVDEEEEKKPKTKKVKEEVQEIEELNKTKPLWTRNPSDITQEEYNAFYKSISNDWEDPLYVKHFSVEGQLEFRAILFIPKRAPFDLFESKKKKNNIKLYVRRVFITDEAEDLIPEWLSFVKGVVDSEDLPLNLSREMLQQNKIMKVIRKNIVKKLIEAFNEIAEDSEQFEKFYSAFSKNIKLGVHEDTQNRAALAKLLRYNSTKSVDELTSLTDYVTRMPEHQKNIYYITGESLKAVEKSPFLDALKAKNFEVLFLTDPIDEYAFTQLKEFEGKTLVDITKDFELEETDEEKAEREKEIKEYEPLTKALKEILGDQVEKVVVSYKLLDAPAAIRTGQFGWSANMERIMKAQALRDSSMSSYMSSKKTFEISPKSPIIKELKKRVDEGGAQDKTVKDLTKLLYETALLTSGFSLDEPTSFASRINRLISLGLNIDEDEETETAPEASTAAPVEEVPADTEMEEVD

With `Nc1nc2c3c(nn(Cc4ccc5c(c4)OCO5)c3n1)CCS2` [Example 167, 2-(1,3-Benzodioxol-5-ylmethyl)-7,8-dihydro-2H-6-thia-1,2,3,5-tetraazaacenaphthylen-4-amine], the IC50 in assay [1] amounted to 5400 nM. The GI50 in assay [2] (NCI-H460, MTT assay, 72 hours) came out at 7300 nM; in assay [3] (SK-BR-3, MTT assay, 72 hours), 3300 nM.
Consider `COc1c(C)cnc(Cn2nc3c4c(nc(N)nc42)SCC3)c1C` [Example 2, 2-[(4-Methoxy-3,5-dimethylpyridin-2-yl)methyl]-7,8-dihydro-2H-6-thia-1,2,3,5-tetraazaacenaphthylen-4-amine], for which the IC50 in assay [1] stood at 1000 nM. Also, the GI50 is 224 nM in assay [2] (NCI-H460, MTT assay, 72 hours) and 148 nM in assay [3] (SK-BR-3, MTT assay, 72 hours).
With `COc1c(C)cnc(Cn2nc3c4c(nc(N)nc42)SCC(C(=O)N2CCC(F)(F)C2)=C3)c1C` [Example 218, 8-[(3,3-Difluoropyrrolidin-1-yl)carbonyl]-2-[(4-methoxy-3,5-dimethylpyridin-2-yl)methyl]-2,7-dihydro-6-thia-1,2,3,5-tetraazabenzo[cd]azulen-4-amine], in assay [1], the IC50 came to 2300 nM. Moreover, the GI50 stood at 160 nM in assay [2] (NCI-H460, 72 h) and 75 nM in assay [3] (SK-BR-3, 72 h).
For the compound `COc1c(C)cnc(Cn2nc3c4c(nc(N)nc42)SCC(CCN2CCCCC2)=C3)c1C` [Example 145, 2-[(4-Methoxy-3,5-dimethylpyridin-2-yl)methyl]-8-(2-piperidin-1-ylethyl)-2,7-dihydro-6-thia-1,2,3,5-tetraazabenzo[cd]azulen-4-amine], in assay [1], the IC50 was determined as 890 nM. The GI50 in assay [2] (NCI-H460, 72 h) was 45 nM; in assay [3] (SK-BR-3, 72 h), 19 nM.
`CNC(=O)OC1CSc2nc(N)nc3c2c(nn3Cc2ncc(C)c(OC)c2C)C1` (centres unmarked) [Example 37, 4-Amino-2-[(4-methoxy-3,5-dimethylpyridin-2-yl)methyl]-2,7,8,9-tetrahydro-6-thia-1,2,3,5-tetraazabenzo[cd]azulen-8-yl methylcarbamate]: in assay [1], the IC50 was determined as 3300 nM. Also, the GI50 came out at 411 nM in assay [2] (NCI-H460, MTT assay, 72 hours) and 307 nM in assay [3] (SK-BR-3, MTT assay, 72 hours).
Consider `COc1c(C)cnc(Cn2nc3c4c(nc(N)nc42)SCC(CCn2ccnc2)=C3)c1C` [Example 137, 8-[2-(1H-Imidazol-1-yl)ethyl]-2-[(4-methoxy-3,5-dimethylpyridin-2-yl)methyl]-2,7-dihydro-6-thia-1,2,3,5-tetraazabenzo[cd]azulen-4-amine], for which, in assay [1], the IC50 was 950 nM. The GI50 in assay [2] (NCI-H460, 72 h) turned out to be 200 nM; in assay [3] (SK-BR-3, 72 h) it was 67 nM.
As to `COc1c(C)cnc(Cn2nc3c4c(nc(N)nc42)SCC(c2cccnc2)=C3)c1C` [Example 223, 2-[(4-Methoxy-3,5-dimethylpyridin-2-yl)methyl]-8-pyridin-3-yl-2,7-dihydro-6-thia-1,2,3,5-tetraazabenzo[cd]azulen-4-amine], the IC50 in assay [1] was determined as 1100 nM. In addition, the GI50 in assay [2] (NCI-H460, 72 h) stood at 250 nM; in assay [3] (SK-BR-3, 72 h), 140 nM.
In the case of `Cc1cnc(Cn2nc3c4c(nc(N)nc42)SCC3)c(C)c1Cl` [Example 175, 2-[(4-Chloro-3,5-dimethylpyridin-2-yl)methyl]-7,8-dihydro-2H-6-thia-1,2,3,5-tetraazaacenaphthylen-4-amine], the IC50 in assay [1] was determined as 1200 nM.
Consider `COc1c(C)cnc(Cn2nc3c4c(nc(N)nc42)SC(C(=O)Nc2nccs2)C3)c1C` (centres unmarked) [Example 191, 4-Amino-2-[(4-methoxy-3,5-dimethylpyridin-2-yl)methyl]-N-(1,3-thiazol-2-yl)-7,8-dihydro-2H-6-thia-1,2,3,5-tetraazaacenaphthylene-7-carboxamide], for which the IC50 in assay [1] is 1500 nM. Further, the GI50 in assay [2] (NCI-H460, MTT assay, 72 hours) came out at 57 nM; in assay [3] (SK-BR-3, MTT assay, 72 hours), 20 nM.
As for `COc1c(C)cnc(Cn2nc3c4c(nc(N)nc42)SCC(CC(N)=O)=C3)c1C` [Example 115, 2-{4-Amino-2-[(4-methoxy-3,5-dimethylpyridin-2-yl)methyl]-2,7-dihydro-6-thia-1,2,3,5-tetraazabenzo[cd]azulen-8-yl}acetamide], the IC50 in assay [1] is 740 nM. Also, the GI50 worked out at 194 nM in assay [2] (NCI-H460, MTT assay, 72 hours) and 77 nM in assay [3] (SK-BR-3, MTT assay, 72 hours).
As to `CNC(=O)CC1=Cc2nn(Cc3ncc(C)c(OC)c3C)c3nc(N)nc(c23)SC1` [Example 116, 2-{4-Amino-2-[(4-methoxy-3,5-dimethylpyridin-2-yl)methyl]-2,7-dihydro-6-thia-1,2,3,5-tetraazabenzo[cd]azulen-8-yl}-N-methylacetamide], in assay [1], the IC50 was found to be 1100 nM. The GI50 in assay [2] (NCI-H460, MTT assay, 72 hours) is 89 nM; in assay [3] (SK-BR-3, MTT assay, 72 hours), 37 nM.
As to `COc1c(C)cnc(Cn2nc3c4c(nc(N)nc42)SCC(N2CCC[C@H]2C(N)=O)C3)c1C` (stereo partly drawn) [Example 67, 1-{4-Amino-2-[(4-methoxy-3,5-dimethylpyridin-2-yl)methyl]-2,7,8,9-tetrahydro-6-thia-1,2,3,5-tetraazabenzo[cd]azulen-8-yl}-L-prolinamide], the IC50 in assay [1] came out at 1200 nM. The GI50 in assay [2] (NCI-H460, MTT assay, 72 hours) was 300 nM; in assay [3] (SK-BR-3, MTT assay, 72 hours), 130 nM.
With `Nc1nc2c3c(nn(Cc4cc5c(cn4)OCCO5)c3n1)CCS2` [Example 172, 2-(2,3-Dihydro[1,4]dioxino[2,3-c]pyridin-7-ylmethyl)-7,8-dihydro-2H-6-thia-1,2,3,5-tetraazaacenaphthylen-4-amine], the IC50 in assay [1] was 1500 nM.
As for `CNC(=O)C1Cc2nn(Cc3ncc(C)c(OC)c3C)c3nc(N)nc(c23)S1` (centres unmarked) [Example 9, 4-Amino-2-[(4-methoxy-3,5-dimethylpyridin-2-yl)methyl]-N-methyl-7,8-dihydro-2H-6-thia-1,2,3,5-tetraazaacenaphthylene-7-carboxamide], in assay [1], the IC50 was 1200 nM. Further, the GI50 turned out to be 159 nM in assay [2] (NCI-H460, MTT assay, 72 hours) and 137 nM in assay [3] (SK-BR-3, MTT assay, 72 hours).
As to `COc1c(C)cnc(Cn2nc3c4c(nc(N)nc42)SCC(CO)=C3)c1C` [Example 214, {4-Amino-2-[(4-methoxy-3,5-dimethylpyridin-2-yl)methyl]-2,7-dihydro-6-thia-1,2,3,5-tetraazabenzo[cd]azulen-8-yl}methanol], the IC50 in assay [1] amounted to 760 nM.
Regarding `COc1c(C)cnc(Cn2nc3c4c(nc(N)nc42)SCC(NC2CC2)C3)c1C` (centres unmarked) [Example 51, N^8-Cyclopropyl-2-[(4-methoxy-3,5-dimethylpyridin-2-yl)methyl]-2,7,8,9-tetrahydro-6-thia-1,2,3,5-tetraazabenzo[cd]azulene-4,8-diamine hydrochloride], the IC50 in assay [1] amounted to 2400 nM. Besides, the GI50 in assay [2] (NCI-H460, MTT assay, 72 hours) came out at 150 nM; in assay [3] (SK-BR-3, MTT assay, 72 hours), 58 nM.
`CCc1c(C)cnc(Cn2nc3c4c(nc(N)nc42)SCC3)c1C` [Example 176, 2-[(4-Ethyl-3,5-dimethylpyridin-2-yl)methyl]-7,8-dihydro-2H-6-thia-1,2,3,5-tetraazaacenaphthylen-4-amine]: in assay [1], the IC50 was 890 nM.
Still for that read-out and setting: to `Nc1nc2c3c(nn(Cc4nc5cccc(Cl)c5s4)c3n1)CCS2` [Example 174, 2-[(7-Chloro-1,3-benzothiazol-2-yl)methyl]-7,8-dihydro-2H-6-thia-1,2,3,5-tetraazaacenaphthylen-4-amine] belongs 3400 nM.
